The values below are quoted from earlier work in patent US5888536A (Chinoin Ltd., priority 1994, dated 1999).

`C#CCN(C)[C@H](C)Cc1ccccc1` [selegilin, (-)-[N-α-dimethyl-N-(2-propynylphenylethylamine)]]: the solubility in chloroform (chloroform) is 1 g/5 ml. For the same compound, the solubility in methanol (methanol) is given as 1 g/3 ml. Moreover, under “water”, the solubility in water is given as 1 g/3 ml.
